Test results taken from patent publication US9908897B2, “Spirocyclic derivatives” (CHRONOS THERAPEUTICS LIMITED, priority 2014, dated 2018).

Assays:
[1] = target: human norepinephrine transporter (NET) (Homo sapiens (Human), UniProt P23975); experiment: Scintillation Proximity Assay (SPA) competition binding, human NET; conditions: recombinant hNET-CHO membranes, [3H]nisoxetine
Description: (§1) Measure of Affinity to the Human Transporters DAT, NET and SERT
(§2) Affinity is expressed in terms of inhibition constant (Ki) of the compounds of the invention for DAT, NET and SERT, and it is typically calculated from the IC50 values obtained in competition experiments using Cheng and Prusoff equation (Cheng and Prusoff, Biochem. Pharmacol. 22:3099, 1973). In the context of the present invention pKi values (corresponding to the antilogarithm of Ki) are used instead of Ki; pKi are only estimated to be accurate to about 0.3 log unit.
(§3) Scintillation Proximity Assay (SPA) for Human DAT, NET and SERT Binding
(§4) Chinese Hamster Ovary (CHO) cells stably expressing either human DAT (hDAT-CHO) or human NET (hNET-CHO) or human SERT (hSERT-CHO) are used for the membrane preparations for radioligand binding assays using Scintillation proximity Assay (SPA) technique. Each cell line is cultured independently in F-12K Nutrient Mixture containing 10% of Fetal Bovine Serum (FBS) supplemented with 450 μg/ml G-418. When cells are at 70-80% of confluence 3 mM Na Butyrate was added to the cell culture medium. After 24 h of incubation, the culture medium was removed and the cells detached with Versene (DAT) or by scraping (NET and SERT). Cell suspension is centrifuged at 41,000 g for 10 minutes at 4° C. The resultant pellets are re-suspended in 15 volumes of Ice-cold buffer (20 mM HEPES, 145 mM NaCl, 5 mM KCl, pH7.3), homogenized using an Ultra Turrax homogeniser and centrifuged as before. The resultant membrane pellets are re-suspended in up to 15 volume of ice-cold buffer, incubated for 20 minutes at 37-C and centrifuged as before at 41,000 g. The final membrane pellets are re-suspended into 5-10 volumes of ice-cold buffer, dispensed into 0.5 ml aliquots and stored at −80° C. until use. Protein concentration for each preparation is determined using Bio-Rad Protein Assay kit.
(§5) The affinity of the compounds of the invention to the human DAT or NET or SERT transporters is assessed by using the [^3H]WIN-35,428 or [^3H]nisoxetine or [^3H]citalopram binding assays in recombinant human DAT, NET and SERT membranes with the SPA technology. The final assay volume is 50 μL in 384 well plates.
(§6) Briefly, 0.5 μL of test compound in neat DMSO or 0.5 μL of DMSO for total binding (TB) or 0.5 μL of indatraline 1 mM (10 μM final concentration) for non specific binding (NSB) are added to the assay plate. 50 μL of the SPA mixture is added to each well, containing: 30 μg/mL or 10 μg/mL or 25 μg/mL DAT, NET, SERT membranes, respectively; 5 nM [^3H]WIN-35,428 or 5 nM [^3H]nisoxetine or 1 nM [^3H]citalopram, for DAT, NET, SERT assay, respectively; 2.5 mg/mL or 1 mg/mL or 4 mg/mL WGA-PVT SPA beads (PerkinElmer RPNQ0001, for DAT, NET, SERT assay, respectively. All components are added to Assay Buffer (20 mM HEPES pH 7.4, 145 mM NaCl, 5 mM KCl, 0.01% Pluronic F-127). 0.02% BSA was used for DAT binding only. Plates are sealed with Topseal A and centrifuged 1 min, 800 rpm. Plates are loaded into a 1450 Microbeta TriLux (Perkin-Elmer) plate reader and the radioactivity counted after at least 4 hrs or overnight incubation at room temperature. Curve fitting and IC50 estimations are performed using a four parameter model in XLfit (IDBS, Guilford, UK) for Microdoft Excel (Microsoft, Redmond, Wash.).

[2] = target: human serotonin transporter (SERT) (Homo sapiens (Human), UniProt P31645); experiment: Scintillation Proximity Assay (SPA) competition binding, human SERT; conditions: recombinant hSERT-CHO membranes, [3H]citalopram
Sequence of human serotonin transporter (SERT) (P31645 whole entry): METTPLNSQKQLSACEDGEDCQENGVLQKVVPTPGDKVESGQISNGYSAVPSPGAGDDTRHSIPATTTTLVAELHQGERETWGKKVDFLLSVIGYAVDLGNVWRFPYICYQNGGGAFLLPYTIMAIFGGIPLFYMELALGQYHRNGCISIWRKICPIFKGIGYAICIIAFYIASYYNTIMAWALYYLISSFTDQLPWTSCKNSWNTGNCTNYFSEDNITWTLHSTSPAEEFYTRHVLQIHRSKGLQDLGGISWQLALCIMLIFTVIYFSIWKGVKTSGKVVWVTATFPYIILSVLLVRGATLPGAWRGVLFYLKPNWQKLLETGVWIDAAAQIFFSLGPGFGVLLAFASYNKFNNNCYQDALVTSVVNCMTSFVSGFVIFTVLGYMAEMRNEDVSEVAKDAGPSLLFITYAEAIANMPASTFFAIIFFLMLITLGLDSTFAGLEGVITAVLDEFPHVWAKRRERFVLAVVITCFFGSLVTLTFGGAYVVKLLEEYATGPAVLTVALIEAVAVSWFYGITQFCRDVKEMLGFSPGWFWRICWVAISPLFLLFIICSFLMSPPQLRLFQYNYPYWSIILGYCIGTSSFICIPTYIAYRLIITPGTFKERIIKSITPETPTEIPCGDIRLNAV
Description: as §1, §2, §3, §4, §5, §6

[3] = target: human dopamine transporter (DAT) (Homo sapiens (Human), UniProt Q01959); experiment: Scintillation Proximity Assay (SPA) competition binding, human DAT; conditions: recombinant hDAT-CHO membranes, [3H]WIN-35,428
Sequence of human dopamine transporter (DAT) (Q01959 whole entry): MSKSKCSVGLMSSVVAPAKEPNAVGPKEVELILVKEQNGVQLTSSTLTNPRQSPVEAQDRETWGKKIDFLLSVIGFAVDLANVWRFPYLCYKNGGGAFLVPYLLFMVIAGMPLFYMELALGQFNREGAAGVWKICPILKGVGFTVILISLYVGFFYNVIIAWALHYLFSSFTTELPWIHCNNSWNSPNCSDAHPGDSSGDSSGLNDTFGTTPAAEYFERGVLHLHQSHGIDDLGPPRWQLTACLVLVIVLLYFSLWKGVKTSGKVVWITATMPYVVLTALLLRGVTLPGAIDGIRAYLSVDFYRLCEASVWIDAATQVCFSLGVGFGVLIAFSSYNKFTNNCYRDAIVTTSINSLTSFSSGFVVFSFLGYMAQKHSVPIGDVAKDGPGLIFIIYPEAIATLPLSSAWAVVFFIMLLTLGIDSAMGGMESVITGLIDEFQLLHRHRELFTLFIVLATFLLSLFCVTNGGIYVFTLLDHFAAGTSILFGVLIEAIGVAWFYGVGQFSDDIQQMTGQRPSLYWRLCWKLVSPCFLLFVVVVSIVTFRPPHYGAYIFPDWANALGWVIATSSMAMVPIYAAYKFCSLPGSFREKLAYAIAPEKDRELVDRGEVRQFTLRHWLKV
Description: as §1
In the context of the present invention pKi values (corresponding to the antilogarithm of Ki) are used instead of Ki; pKi are only estimated to be accurate to about 0.3 log unit.
as §3, §4, §5, §6

Sequence of human norepinephrine transporter (NET) (P23975 whole entry): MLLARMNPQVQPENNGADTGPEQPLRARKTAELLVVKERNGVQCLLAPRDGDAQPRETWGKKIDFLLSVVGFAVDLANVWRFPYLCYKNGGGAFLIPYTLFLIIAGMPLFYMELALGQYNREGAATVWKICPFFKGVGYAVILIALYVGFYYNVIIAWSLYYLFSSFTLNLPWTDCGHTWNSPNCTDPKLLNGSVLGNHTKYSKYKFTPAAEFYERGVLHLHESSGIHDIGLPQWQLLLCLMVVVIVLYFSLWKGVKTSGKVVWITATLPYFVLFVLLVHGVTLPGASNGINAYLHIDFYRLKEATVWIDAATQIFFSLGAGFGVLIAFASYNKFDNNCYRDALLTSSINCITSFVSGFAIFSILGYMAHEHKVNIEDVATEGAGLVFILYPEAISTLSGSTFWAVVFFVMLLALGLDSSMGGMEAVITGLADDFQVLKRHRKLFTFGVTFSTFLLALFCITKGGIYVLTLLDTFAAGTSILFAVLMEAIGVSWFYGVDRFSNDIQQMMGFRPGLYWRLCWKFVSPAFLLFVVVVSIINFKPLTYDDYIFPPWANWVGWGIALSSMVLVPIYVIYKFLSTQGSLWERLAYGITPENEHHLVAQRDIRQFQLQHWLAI

| Compound | pIC50 NET [1] | pIC50 SERT [2] | pIC50 DAT [3] | IC50 [2] |
| --- | --- | --- | --- | --- |
| Cl.N#Cc1c(C(F)(F)F)cc(N2CCC3(CC2)CNCCO3)nc1Oc1cccc(F)c1 [Example 39, 2-(3-fluorophenoxy)-6-{1-oxa-4,9-diazaspiro[5.5]undecan-9-yl}-4-(trifluoromethyl)pyridine-3-carbonitrile hydrochloride] | 5.78 | 4.50 | 6.68 |  |
| O=C1CNCC2(CCN(c3nc(Oc4cccc(F)c4)cc(C(F)(F)F)n3)CC2)N1 [Example 73, 9-[4-(3-fluorophenoxy)-6-(trifluoromethyl)pyrimidin-2-yl]-1,4,9-triazaspiro[5.5]undecan-2-one] | 4.82 |  | 6.32 | > 100 µM |
| Cl.Fc1ccc(Oc2cc(C(F)(F)F)nc(N3CCC4(CC3)CNCCO4)n2)cc1 [Example 58, 9-[4-(4-fluorophenoxy)-6-(trifluoromethyl)pyrimidin-2-yl]-1-oxa-4,9-diazaspiro[5.5]undecane hydrochloride] | 5.52 | 7.31 | 7.53 |  |
| Cl.Fc1cccc(Oc2cc(F)c(F)cc2N2CCC3(CCNCC34OCCO4)C2)c1 (stereo not drawn) [Example 94, 8-[4,5-difluoro-2-(3-fluorophenoxy)phenyl]-1,4-dioxa-8,13-diazadispiro[4.0.4^6.4^5]tetradecane hydrochloride] | 7.11 | 7.14 | 8.69 |  |
| CN1CCCNC(=O)C12CCN(c1nc(Oc3cccc(F)c3)cc(C(F)(F)F)n1)CC2 [Example 76, 3-[4-(3-fluorophenoxy)-6-(trifluoromethyl)pyrimidin-2-yl]-7-methyl-3,7,11-triazaspiro[5.6]dodecan-12-one] | 4.88 |  | 7.28 | > 100 µM |
| Fc1cccc(Oc2cncc(N3CCC4(CC3)CNCCO4)c2)c1 [Example 31, 9-[5-(3-fluorophenoxy)pyridin-3-yl]-1-oxa-4,9-diazaspiro[5.5]undecane] | 5.96 | 5.71 | 7.43 |  |
| CSc1cc(Oc2cccc(F)c2)nc(N2CCC3(CC2)CNCCO3)n1.Cl [Example 63, 9-[4-(3-fluorophenoxy)-6-(methylsulfanyl)pyrimidin-2-yl]-1-oxa-4,9-diazaspiro[5.5]undecane hydrochloride] | 6.34 | 5.15 | 8.07 |  |
| c1ccc(Oc2cccc(N3CCC4(CC3)CNCCO4)c2)cc1 [Example 6, 9-(3-phenoxyphenyl)-1-oxa-4,9-diazaspiro[5.5]undecane] | 5.83 | 6.12 | 7.41 |  |
| Cl.Fc1cccc(Oc2cc(F)c(F)cc2N2CCC3(CC2)CNCC(F)(F)O3)c1 [Example 69, 9-[4,5-difluoro-2-(3-fluorophenoxy)phenyl]-2,2-difluoro-1-oxa-4,9-diazaspiro[5.5]undecane hydrochloride] | 5.06 |  | 5.97 | > 100 µM |
| Fc1cccc(Oc2cc(C(F)(F)F)nc(N3CC4(CNCCO4)C3)n2)c1 [Example 102, 2-[4-(3-fluorophenoxy)-6-(trifluoromethyl)pyrimidin-2-yl]-5-oxa-2,8-diazaspiro[3.5]nonane] | 6.22 | 4.00 | 8.00 |  |
| Cc1cc(Oc2cccnc2)nc(N2CCC3(CC2)CNCCO3)n1.Cl [Example 53, 9-[4-methyl-6-(pyridin-3-yloxy)pyrimidin-2-yl]-1-oxa-4,9-diazaspiro[5.5]undecane hydrochloride] | 5.21 | 4.56 | 6.63 |  |
| Fc1cccc(Oc2ccc(F)c(N3CCC4(CC3)CNCCO4)c2F)c1 [Example 23, 9-[2,6-difluoro-3-(3-fluorophenoxy)phenyl]-1-oxa-4,9-diazaspiro[5.5]undecane] | 6.91 | 6.16 | 8.32 |  |
| Cl.Fc1cccc(Oc2cc(C(F)(F)F)nc(N3CCC4(CC3)COCCN4)n2)c1 [Example 78, 9-[4-(3-fluorophenoxy)-6-(trifluoromethyl)pyrimidin-2-yl]-4-oxa-1,9-diazaspiro[5.5]undecane hydrochloride] | 7.32 | 5.17 | 7.94 |  |
| N#Cc1ccc(Oc2ccccc2)cc1N1CCC2(CC1)CNCCO2 [Example 27, 2-{1-oxa-4,9-diazaspiro[5.5]undecan-9-yl}-4-phenoxybenzonitrile] | 5.69 | 5.15 | 7.54 |  |
| Fc1cccc(Oc2cc(N3CCC4(CC3)CNCCO4)c(F)cc2F)c1 [Example 12, 9-[2,4-difluoro-5-(3-fluorophenoxy)phenyl]-1-oxa-4,9-diazaspiro[5.5]undecane] | 5.75 | 5.97 | 6.78 |  |
| Fc1cccc(Oc2cc(C(F)(F)F)nc(N3CCC4(CC3)CNCCN4)n2)c1 [Example 75, 9-[4-(3-fluorophenoxy)-6-(trifluoromethyl)pyrimidin-2-yl]-1,4,9-triazaspiro[5.5]undecane] | 6.54 | 5.18 | 8.88 |  |
| Fc1cccc(Oc2cc(F)c(F)cc2N2CCC3(CNCCC34OCCO4)C2)c1 (stereo not drawn) [Example 85, 8-[4,5-difluoro-2-(3-fluorophenoxy)phenyl]-1,4-dioxa-8,12-diazadispiro[4.0.4^6.4^5]tetradecane] | 5.81 | 6.35 | 6.62 |  |
| Cc1cc(Oc2cc(F)cc(F)c2)nc(N2CCC3(CC2)CNCCO3)n1.Cl [Example 50, 9-[4-(3,5-difluorophenoxy)-6-methylpyrimidin-2-yl]-1-oxa-4,9-diazaspiro[5.5]undecane hydrochloride] | 6.96 | 5.11 | 8.24 |  |
| CSc1cc(N2CCC3(CC2)CNCCO3)nc(Oc2cccc(F)c2)n1.Cl [Example 64, 9-[2-(3-fluorophenoxy)-6-(methylsulfanyl)pyrimidin-4-yl]-1-oxa-4,9-diazaspiro[5.5]undecane hydrochloride] | 5.35 | 4.86 | 6.38 |  |
| Cc1ccc(Oc2ccccc2)cc1N1CCC2(CC1)CNCCO2 [Example 29, 9-(2-methyl-5-phenoxyphenyl)-1-oxa-4,9-diazaspiro[5.5]undecane] | 6.01 | 5.80 | 7.44 |  |
| Cc1cc(Oc2cccc(OC(F)(F)F)c2)nc(N2CCC3(CC2)CNCCO3)n1.Cl [Example 47, 9-{4-methyl-6-[3-(trifluoromethoxy)phenoxy]pyrimidin-2-yl}-1-oxa-4,9-diazaspiro[5.5]undecane hydrochloride] | 5.51 | 5.27 | 6.59 |  |
| Fc1cccc(Oc2cc(N3CCC4(CC3)CNCCO4)cc(F)c2F)c1 [Example 15, 9-[3,4-difluoro-5-(3-fluorophenoxy)phenyl]-1-oxa-4,9-diazaspiro[5.5]undecane] | 6.02 | 7.03 | 7.05 |  |
| Cc1cc(Oc2ccccc2C)nc(N2CCC3(CC2)CNCCO3)n1.Cl [Example 51, 9-[4-methyl-6-(2-methylphenoxy)pyrimidin-2-yl]-1-oxa-4,9-diazaspiro[5.5]undecane hydrochloride] | 5.78 | 5.21 | 7.33 |  |
